# Source: ChEMBL document CHEMBL4616724, “Topoisomerase Inhibitors Addressing Fluoroquinolone Resistance in Gram-Negative Bacteria” (J Med Chem, 2020)
# Key:
# Escherichia coli [1] = assay: Antibacterial activity against wild type Escherichia coli ATCC 25922 at pH 7.4 by CLSI-based broth microdilution assay; format: functional
# Pseudomonas aeruginosa [2] = assay: Antibacterial activity against wild type Pseudomonas aeruginosa PAO1 K767 by CLSI-based broth microdilution assay; format: functional
# Klebsiella pneumoniae = assay: Antibacterial activity against wild type Klebsiella pneumoniae ATCC 43816 by CLSI-based broth microdilution assay; format: functional
# Pseudomonas aeruginosa [3] = assay: Antibacterial activity against Pseudomonas aeruginosa K1542/K767 harboring MexB/MexXY deletion mutant by CLSI-based broth microdilution assay; format: functional
# Pseudomonas aeruginosa [4] = assay: Antibacterial activity against Pseudomonas aeruginosa NB52023 harboring gyrA T83I mutant/ParC S87L mutant by CLSI-based broth microdilution assay; format: functional
# Escherichia coli [5] = assay: Antibacterial activity against Escherichia coli BW25113/JW0451-2 harboring AcrB deletion mutant by CLSI-based broth microdilution assay; format: functional
# [6] = Dissociation constant, pKa of the compound by UV metric method; format: physicochemical
# [7] = Photoirradiation factor, ratio of IC50 for BALB/c mouse 3T3 cells under dark condition to IC50 for BALB/c mouse 3T3 cells under 5 J/cm2 sunlight irradiation by neutral red uptake assay; format: ADME, cell-based, NIH3T3; conditions: BALB/c 3T3 cells, read-out: Ratio IC50
# NIH3T3 = assay: Phototoxicity against BALB/c mouse 3T3 cells assessed as reduction in cell viability preincubated for 1 hr followed by 5 J/cm2 UVA sunlight irradiation for 50 mins and subsequent replacement of medium and measured after 24 hrs by neutral red uptake assay; format: cell-based; conditions: NIH3T3, light or radiation study
# [8] = Dark toxicity in BALB/c mouse 3T3 cells assessed as reduction in cell viability incubated for 1 hr prior to 50 mins incubation under dark condition followed by replacement of medium and measured after 24 hrs by neutral red uptake assay; format: cell-based, NIH3T3; conditions: BALB/c 3T3 cells
# Escherichia coli [9] = assay: Antibacterial activity against wild type Escherichia coli ATCC 25922 at pH 5.8 by CLSI-based broth microdilution assay; format: functional
# Escherichia coli [10] = assay: Ratio of MIC for antibacterial activity against wild type Escherichia coli ATCC 25922 at pH 5.8 to MIC for antibacterial activity against wild type Escherichia coli ATCC 25922 at pH 7.4; format: functional
# [11] = Selectivity ratio of MIC for wild type Escherichia coli ATCC 25922 to MIC for Escherichia coli BW25113/JW0451-2 harboring AcrB deletion mutant; format: functional
# DNA gyrase = DNA gyrase (Escherichia coli, UniProt P0AES4+P0AES6); assay: Inhibition of recombinant full-length C-terminal His6-tagged Escherichia coli DNA gyrase AB supercoiling activity using relaxed DNA as substrate preincubated for 30 mins followed by substrate addition and measured after 2 hrs in presence of ATP by size exclusion HPLC analysis; format: protein-complex assay
# [12] = Inhibition of recombinant full-length C-terminal His6-tagged Escherichia coli DNA topoisomerase 4 subunit ParC/ParE using kinetoplast DNA as substrate preincubated for 30 mins followed by substrate addition and measured after 1 hr in presence of ATP by size exclusion chromatography
# [13] = Selectivity ratio of MIC for Pseudomonas aeruginosa NB52023 harboring gyrA T83I mutant/ParC S87L mutant to MIC for Pseudomonas aeruginosa K1542/K767 harboring MexB/MexXY deletion mutant; format: functional
# [14] = Solubility of the compound in pH 7 PBS incubated for 24 hrs under gently shaking condition by UPLC/UV/CLND/MS analysis; format: physicochemical
# [15] = n-Octanol-PBS buffer partition coefficient, log D of the compound at pH 7.4 after overnight incubation by LC/UV/qTOF analysis; format: physicochemical
# [16] = Protein binding in CD1 mouse plasma at 10 uM incubated for 4 hrs under shaking condition by LC-MS/MS analysis; format: ADME, cell-free; conditions: read-out: PPB (converted)
# [17] = Protein binding in Sprague-Dawley rat plasma at 10 uM incubated for 4 hrs under shaking condition by LC-MS/MS analysis; format: ADME, cell-free; conditions: read-out: PPB (converted)
# [18] = Protein binding in pooled human plasma at 10 uM incubated for 4 hrs under shaking condition by LC-MS/MS analysis; format: ADME, cell-free; conditions: read-out: PPB (converted)
# [19] = Intrinsic clearance in rat liver microsomes at 1 uM in presence of NADPH and measured up to 30 mins by LC-MS/MS analysis; format: ADME, Microsome; conditions: read-out: CLH
# [20] = Intrinsic clearance in human liver microsomes at 1 uM in presence of NADPH and measured up to 30 mins by LC-MS/MS analysis; format: ADME, Microsome; conditions: read-out: CLH
Structure (SMILES),MIC (Escherichia coli [1]) [µg/mL],MIC (Pseudomonas aeruginosa [2]) [µg/mL],MIC (Klebsiella pneumoniae) [µg/mL],MIC (Pseudomonas aeruginosa [3]) [µg/mL],MIC (Pseudomonas aeruginosa [4]) [µg/mL],MIC (Escherichia coli [5]) [µg/mL],also measured
N#Cc1c(N2CC3CC3(N)C2)c(F)cc2c(CN)cc(=O)n(C3CC3)c12 (stereo not drawn),1,16,2,2,4,0.125,–
Cc1c(N2CC[C@@H]([C@H](C)N)C2)c(F)cc2c(C(=O)O)cc(=O)n(C3CC3)c12,> 32,> 32,> 32,> 32,> 32,–,pKa [6]: 2.2
Cc1c(N2CC[C@@H]([C@H](C)N)C2)c(F)cc2c(Cl)cc(=O)n(C3CC3)c12,2,8,4,4,8,0.06,–
Cc1c(N2CCNCC2)c(F)cc2c(CN)cc(=O)n(C3CC3)c12,0.25 to 4,4 to 8,0.5 to 2,0.5 to 1,1 to 2,0.06 to 1,–
C[C@@H]1CN(c2c(F)c(N)c3c(=O)c(C(=O)O)cn(C4CC4)c3c2F)C[C@H](C)N1 [SPARFLOXACIN],–,–,–,–,–,–,selectivity ratio [7]: > 82
Cc1c(CN)c2cc(F)c(N3CC4CC4(N)C3)c(C)c2n(C2CC2)c1=O (stereo not drawn),0.25,8,1,1,2,0.125,–
Cc1c(N2CC[C@@H]([C@H](C)N)C2)c(F)cc2c(OCCN(C)C)cc(=O)n(C3CC3)c12,1,8,4,4,8,–,–
Cc1c(N2CC[C@@H]([C@H](C)N)C2)c(F)cc2c(CO)cc(=O)n(C3CC3)c12,16,16,32,4,8,0.25,–
Cc1c(N2CC3CC3(N)C2)c(F)cc2c(CN)cc(=O)n(C3CC3)c12 (stereo not drawn),0.25,4,0.5,0.5,1,0.06,selectivity ratio [7]: 104; IC50 (NIH3T3): 3030 nM; IC50 at 110 min [8]: 316000 nM; MIC (Escherichia coli [9]): 32 µg/mL; Ratio (Escherichia coli [10]): 128; Selectivity ratio [11]: 4
NCc1cc(=O)n(C2CC2)c2c(OC(F)F)c(N3CC4CC4(N)C3)c(F)cc12 (stereo not drawn),2,> 32,8,8,32,1,–
Cc1c(N2C[C@@]3(C)C[C@@]3(N)C2)c(F)cc2c(CN)cc(=O)n(C3CC3)c12 (racemic),0.125,4,0.25,1,2,≤ 0.03,–
Cc1c(N2CCC3CC3(N)C2)c(F)cc2c(CN)cc(=O)n(C3CC3)c12 (stereo not drawn),4,16,4,4,16,1,–
Cc1c(N2CC[C@H](N)C2)c(F)cc2c(CN)cc(=O)n(C3CC3)c12,2,4,2,0.5,2,0.5,selectivity ratio [7]: 1.7; IC50 (NIH3T3): 288000 nM; MIC (Escherichia coli [9]): > 32 µg/mL; Ratio (Escherichia coli [10]): >=32
Cc1c(N2CCCC2)c(F)cc2c(CN)cc(=O)n(C3CC3)c12,1,32,2,4,8,0.06,–
Cc1c(N2CC[C@@H]([C@H](C)N)C2)c(F)cc2cc(C(=O)O)c(=O)n(C3CC3)c12,4,–,8,–,64,–,IC50 (DNA gyrase): 2910 nM; IC50 [12]: 4800 nM; Selectivity ratio [13]: 8
Cc1c(N2CC[C@@H]([C@H](C)N)C2)c(F)cc2c(O)cc(=O)n(C3CC3)c12,> 32,> 32,> 32,> 32,> 32,16,pKa [6]: 5.7

Structure (SMILES),MIC (Escherichia coli [1]) [µg/mL],MIC (Pseudomonas aeruginosa [2]) [µg/mL],MIC (Klebsiella pneumoniae) [µg/mL],MIC (Pseudomonas aeruginosa [3]) [µg/mL],MIC (Pseudomonas aeruginosa [4]) [µg/mL],MIC (Escherichia coli [5]) [µg/mL],also measured
Cc1c(N2CC3CC3(CN)C2)c(F)cc2c(CN)cc(=O)n(C3CC3)c12 (racemic),8,32,32,4,16,1,–
Cc1c(N2CC3CC3(N)C2)c(F)cc2c(CN)c(Cl)c(=O)n(C3CC3)c12 (stereo not drawn),0.25,8,0.5,1,2,0.06,–
COc1c(N2CC3(C)CC3(N)C2)c(F)cc2c(CN)cc(=O)n(C3CC3)c12 (stereo not drawn),1,32,4,8,16,0.25,–
COc1cc(=O)n(C2CC2)c2c(C)c(N3CC[C@@H]([C@H](C)N)C3)c(F)cc12,32,32,16,8,16,1,–
Cc1c(-c2cc(F)c(N)cc2F)c(F)cc2c(CN)cc(=O)n(C3CC3)c12,0.25,8,1,2,8,≤ 0.03,"solubility ([14]; buffer, pH 7, 24 h): Insoluble"
Cc1c(N2CC[C@@H]([C@H](C)N)C2)c(F)cc2c(-c3n[nH]c(=O)o3)cc(=O)n(C3CC3)c12,8,> 32,32,8,32,–,–
Cc1c(N2C[C@H]3CC[C@@]3(N)C2)c(F)cc2c(CN)cc(=O)n(C3CC3)c12 (racemic),2,8,4,2,4,0.25,–
Cc1c(N2CC[C@@H](N)C2)c(F)cc2c(CN)cc(=O)n(C3CC3)c12,16,> 32,8,8,32,2,–
Cc1c(N2C[C@@H]3[C@@H](N)[C@@H]3C2)c(F)cc2c(CN)cc(=O)n(C3CC3)c12,1,16,4,1,2,0.25,–
Cc1c(N2CC3CC3(N)C2)c(F)cc2c(CN)c(O)c(=O)n(C3CC3)c12 (stereo not drawn),0.5,2,1,0.5,2,0.25,–
Cc1c(N2CC[C@@H]([C@H](C)N)C2)c(F)cc2c(C#N)cc(=O)n(C3CC3)c12,1,4,2,1,1,≤ 0.03,–
NCc1cc(=O)n(C2CC2)c2cc(N3CC4CC4(N)C3)c(F)cc12 (stereo not drawn),1,16,4,2,4,0.5,–
Cc1c(N2CC[C@H](O)C2)c(F)cc2c(CN)cc(=O)n(C3CC3)c12,0.5,4,1,0.25,1,≤ 0.03,MIC (Escherichia coli [9]): 8 µg/mL; Ratio (Escherichia coli [10]): 16
Cc1c(N2CC[C@@H]([C@H](C)N)C2)c(F)cc2ccc(=O)n(C3CC3)c12,1,16,4,4,8,0.06,"solubility at 24 h ([14]; PBS, pH 7): 498 µg/mL; logD [15]: 0.74; IC50 (DNA gyrase): 430 nM; IC50 [12]: 390 nM; fraction unbound at 4 h, 10 µM [16]: 0.19; fraction unbound at 4 h, 10 µM [17]: 0.25; fraction unbound at 4 h, 10 µM [18]: 0.1; microsomal CLint at 1 µM [19]: 10 µL/min/mg; microsomal CLint at 1 µM [20]: < 7.7 µL/min/mg; MIC (Escherichia coli [9]): 16 µg/mL"
Cc1c(N2CC[C@@H]([C@H](C)N)C2)c(F)cc2c(=O)n(N)c(=O)n(C3CC3)c12,1,4,2,1,2,–,IC50 [12]: 220 nM
